In this assay the target is T1, hMOR (Homo sapiens, UniProt P35372).
T1 construct: host or cells: CHO-K1
In words: cell-based. The assay is classed as cell-based. The settings on record: for AUC: AUC of [Ca2+]i fluorescence. As to the method:
Chinese hamster ovary (CHO)-K1 cells expressing hMOR and Gα15 (CHO-K1/MOR/Gα15) were cultured in F12 medium (GIBCO) supplemented with 10 μg/mL Hygromycin B (Invivogen), 20 μg/mL Zeocin (Invivogen) and P/S/F (100 units/mL penicillin, 100 μg/mL streptomycin, 10% fetal bovine serum). The cultures were incubated at 37° C. in a humidified 5% CO2 incubator.
One day prior to running the assay, CORNING® black 96-well assay plates having a clear flat bottom were coated with a 0.1 mg/mL Poly-L-Lysine solution. CHO-K1/MOR/Gα15 cells were suspended in F12 medium and plated at a density of about 8×10^4 cells/well in 200 μL medium. Cells were incubated under a humidified atmosphere of 10% CO2 at 37° C. overnight to reach an 80-90% confluent cell monolayer before the assay. On the day of the assay, 150 μL medium was removed from each well of the plates. To each well were added FLIPR® calcium assay reagents (Molecular Devices Corporation, Sunnyvale, Calif., USA; 50 μL) dissolved in 1× assay buffer (HBSS: KCl 5 mM, KH2PO4 0.3 mM, NaCl 138 mM, NaHCO3 4 mM, Na2HPO4 0.3 mM, d-glucose 5.6 mM, with additional 20 mM HEPES and […], pH 7.4) and 2.5 mM probenecid. After incubation at 37° C. for 1 hour, a test compound, alone or together with naloxone (a MOR antagonist), was also added to each well. Using a FlexStationlll instrument (Molecular Devices Corp.), increments of the [Ca^2+]i fluorescence after robotic injection of the cell suspension were monitored at 1.52 s intervals using the excitation wavelength of 485 nm and the emission wavelength of 525 nm. The [Ca^2+]i fluorescence was measured up to 90 s after the injection. The fluorescence intensity from 6 to 12 wells of cells were averaged and the relative amount of [Ca^2+]i release was determined by integrating the AUC of the [Ca^2+]i fluorescence averages.
A CHO-K1 cell line expressing MOR and Gα15 (GenScript) was used to set up a sensitive high-throughput screen (HTS) system. […] The HTS was performed in the absence or presence of naloxone (an opioid antagonist; 20 nM), to identify AAMs.

Where [1] appears, read: combined with naloxone, CHO-K1/MOR/Gα15 cells.
[2] abbreviates: EC50, combined with naloxone, CHO-K1/MOR/Gα15 cells.
The mark [3] stands for this setting: combined with naloxone, CHO-K1/MOR/Gα15 cells, read-out: EC50.

Where two headings read alike, the source gives them in different places.

30 compounds from US9827228B2, “Opioid receptor modulators and use thereof” (priority 2015, dated 2017) can be followed below.

T1 sequence (P35372 whole entry): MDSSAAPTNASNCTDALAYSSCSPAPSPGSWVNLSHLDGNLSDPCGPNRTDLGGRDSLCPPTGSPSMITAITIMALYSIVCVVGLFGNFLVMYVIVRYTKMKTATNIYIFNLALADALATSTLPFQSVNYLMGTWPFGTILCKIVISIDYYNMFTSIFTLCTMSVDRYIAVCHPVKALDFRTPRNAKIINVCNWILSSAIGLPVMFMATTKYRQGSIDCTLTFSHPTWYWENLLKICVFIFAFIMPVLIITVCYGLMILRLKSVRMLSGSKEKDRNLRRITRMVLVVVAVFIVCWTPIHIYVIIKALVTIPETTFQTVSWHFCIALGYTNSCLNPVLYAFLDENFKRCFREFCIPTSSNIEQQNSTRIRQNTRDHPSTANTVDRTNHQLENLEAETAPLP

In general, EC50 refers to the midpoint of the concentration-response curve. Consider `CCc1cc(Br)ccc1Nc1nc(-c2sc(C)nc2C)cs1` [Compound 49, N-(4-Bromo-2-ethylphenyl)-2′,4′-dimethyl-4,5′-bi-1,3-thiazol-2-amine], for which, under setting [1], the AUC entry is “− (−: <5000)”. The EC50 is under 10 µM (EC50, combined with naloxone) and 3 to 10 µM under setting [2].

As to `Cc1nc(C)c(-c2csc(Nc3c(C)cc(Cl)cc3C)n2)s1` [Compound 51, N-(4-Chloro-2,6-dimethylphenyl)-2′,4′-dimethyl-4,5′-bi-1,3-thiazol-2-amine], the AUC entry under setting [1] was “− (−: <5000)”. Under setting [3], the EC50 was over 10 µM.

On to `Cc1nc(C)c(-c2csc(Nc3cccc(C)c3C)n2)s1` [Compound 53, N-(2,3-Dimethylphenyl)-2′,4′-dimethyl-4,5′-bi-1,3-thiazol-2-amine], for which the AUC entry under setting [1] is given as “+ (+: >5000)”. In addition, under setting [3], the concentration for a half-maximal effect (EC50) was over 10 µM.

As to `Cc1nc(C)c(-c2csc(Nc3c(C)cc(F)cc3C)n2)s1` [Compound 55, N-(4-Fluoro-2,6-dimethylphenyl)-2′,4′-dimethyl-4,5′-bi-1,3-thiazol-2-amine], the AUC entry under setting [1] was “+ (+: >5000)”. For the same compound, the 50% effective concentration (EC50) under setting [3] was over 10 µM.

As for `Cc1nc(C)c(-c2csc(Nc3ccc(C(=O)O)cc3C)n2)s1` [Compound 57, 4-[(2′,4′-Dimethyl-4,5′-bi-1,3-thiazol-2-yl)amino]-3-methylbenzoic acid], the AUC entry under setting [1] is recorded as “− (−: <5000)”. Moreover, the concentration giving a half-maximal response (EC50) under setting [3] was over 10 µM.

For `Cc1nc(C)c(-c2csc(Nc3ccc(O)cc3C)n2)s1` [Compound 60, 4-[(2′,4′-Dimethyl-4,5′-bi-1,3-thiazol-2-yl)amino]-3-methylphenol], the AUC result under setting [1] is “− (−: <5000)”. Moreover, the EC50 under setting [3] was over 10 µM.

For `Cc1nc(C)c(-c2csc(Nc3ccccc3CO)n2)s1` [Compound 62, {2-[(2′,4′-Dimethyl-4,5′-bi-1,3-thiazol-2-yl)amino]phenyl}methanol], the AUC result under setting [1] is given as “− (−: <5000)”. Under setting [3], the EC50 was over 10 µM.

As for `Cc1nc(C)c(-c2csc(Nc3ccccc3O)n2)s1` [Compound 65, 2-[(2′,4′-Dimethyl-4,5′-bi-1,3-thiazol-2-yl)amino]phenol], the AUC entry under setting [1] is given as “+ (+: >5000)”. Moreover, under setting [3], the EC50 is over 10 µM.

Turning to `Cc1nc(C)c(-c2csc(Nc3ccccc3N3CCCCC3)n2)s1` [Compound 68, 2′,4′-Dimethyl-N-[2-(1-piperidinyl)phenyl]-4,5′-bi-1,3-thiazol-2-amine], the AUC result under setting [1] is on record as “− (−: <5000)”. Besides, the 50% effective concentration (EC50) under setting [3] is over 10 µM.

Turning to `Cc1nc(C)c(-c2csc(Nc3ccccc3N3CCOCC3)n2)s1` [Compound 70, 2′,4′-Dimethyl-N-[2-(4-morpholinyl)phenyl]-4,5′-bi-1,3-thiazol-2-amine], the AUC entry under setting [1] is “− (−: <5000)”. Besides, the EC50 was under 10 µM (EC50, combined with naloxone) and 3 to 10 µM under setting [2].

`Cc1nc(C)c(-c2csc(Nc3ccccc3-n3cccc3)n2)s1` [Compound 72, 2′,4′-Dimethyl-N-[2-(1H-pyrrol-1-yl)phenyl]-4,5′-bi-1,3-thiazol-2-amine]: under setting [1], the AUC result is “− (−: <5000)”. For the same compound, the EC50 under setting [3] was over 10 µM.

In the case of `Cc1nc(C)c(-c2csc(Nc3ccc(N(C)C)cc3C)n2)s1` [Compound 75, N^1-(2′,4′-Dimethyl-4,5′-bi-1,3-thiazol-2-yl)-N^4,N^4,2-trimethyl-1,4-benzenediamine], the AUC result under setting [1] is “− (−: <5000)”. Under setting [3], the concentration for a half-maximal effect (EC50) is over 10 µM.

`Cc1nc(C)c(-c2csc(Nc3cccc(Cl)c3C)n2)s1` [Compound 77, N-(3-Chloro-2-methylphenyl)-2′,4′-dimethyl-4,5′-bi-1,3-thiazol-2-amine]: under setting [1], the AUC result is “− (−: <5000)”. The EC50 under setting [3] was over 10 µM.

Regarding `Cc1nc(C)c(-c2csc(Nc3ncccc3C)n2)s1` [Compound 79, 2′,4′-Dimethyl-N-(3-methyl-2-pyridinyl)-4,5′-bi-1,3-thiazol-2-amine], the AUC result under setting [1] was “− (−: <5000)”. The EC50 under setting [3] is over 10 µM.

On to `CCc1ccc(C)nc1Nc1nc(-c2sc(C)nc2C)cs1` [Compound 82, N-(3-Ethyl-6-methyl-2-pyridinyl)-2′,4′-dimethyl-4,5′-bi-1,3-thiazol-2-amine], for which the AUC entry under setting [1] was “− (−: <5000)”. The concentration giving a half-maximal response (EC50) under setting [3] is over 10 µM.

`COc1cccc(Nc2nc(-c3sc(C)nc3C)cs2)c1C` [Compound 85, N-(3-Methoxy-2-methylphenyl)-2′,4′-dimethyl-4,5′-bi-1,3-thiazol-2-amine]: the AUC result under setting [1] is reported as “+ (+: >5000)”. Also, the concentration for a half-maximal effect (EC50) reads like this: (EC50, combined with naloxone) under 10 µM; under setting [2], 3 to 10 µM.

As for `Cc1nc(C)c(-c2csc(Nc3cccc(C(F)(F)F)c3C)n2)s1` [Compound 87, 2′,4′-Dimethyl-N-[2-methyl-3-(trifluoromethyl)phenyl]-4,5′-bi-1,3-thiazol-2-amine], the AUC result under setting [1] was “− (−: <5000)”. The EC50 under setting [3] is over 10 µM.

In the case of `Cc1nc(C)c(-c2csc(Nc3cccc(O)c3C)n2)s1` [Compound 89, 3-[(2′,4′-Dimethyl-4,5′-bi-1,3-thiazol-2-yl)amino]-2-methylphenol], the AUC entry under setting [1] was “− (−: <5000)”. For the same compound, the EC50 under setting [3] was over 10 µM.

On to `CCc1ccccc1Nc1nc(-c2sc(-c3ccccc3)nc2C)cs1` [Compound 92, N-(2-Ethylphenyl)-4′-methyl-2′-phenyl-4,5′-bi-1,3-thiazol-2-amine], for which, under setting [1], the AUC result is “− (−: <5000)”. For the same compound, the EC50 under setting [3] is over 10 µM.

`Cc1ccc(Nc2nc(-c3sc(-c4ccccc4)nc3C)cs2)c(C)c1` [Compound 93, N-(2,4-Dimethylphenyl)-4′-methyl-2′-phenyl-4,5′-bi-1,3-thiazol-2-amine]: the AUC result under setting [1] is “− (−: <5000)”. Further, the concentration giving a half-maximal response (EC50) under setting [3] was over 10 µM.

With `CCc1ccccc1Nc1nc(-c2sc(-c3ccc(Cl)cc3)nc2C)cs1` [Compound 94, 2′-(4-Chlorophenyl)-N-(2-ethylphenyl)-4′-methyl-4,5′-bi-1,3-thiazol-2-amine], under setting [1], the AUC result is reported as “− (−: <5000)”. Further, the half-maximal effective concentration (EC50) under setting [3] was over 10 µM.

Take `CCc1nc(C)c(-c2csc(Nc3ccccc3CC)n2)s1` [Compound 95, 2′-Ethyl-N-(2-ethylphenyl)-4′-methyl-4,5′-bi-1,3-thiazol-2-amine]: the AUC entry under setting [1] is given as “+ (+: >5000)”. Besides, the EC50 is under 10 µM (EC50, combined with naloxone) and 3 to 10 µM under setting [2].

Take `CCc1ccccc1Nc1nc(-c2sc(C)nc2C)c(C)s1` [Compound 98, N-(2-Ethylphenyl)-2′,4′,5-trimethyl-4,5′-bi-1,3-thiazol-2-amine]: the AUC result under setting [1] is “− (−: <5000)”. For the same compound, the half-maximal effective concentration (EC50) under setting [3] is over 10 µM.

With `CCc1ccccc1Nc1nc(-c2sc(N)nc2C)cs1` [Compound 100, N^2-(2-ethylphenyl)-4′-methyl-4,5′-bi-1,3-thiazole-2,2′-diamine], the AUC result under setting [1] is on record as “− (−: <5000)”. For the same compound, under setting [3], the EC50 is over 10 µM.

For the compound `CCc1ccccc1Nc1nc(-c2oc(C)nc2C)cs1` [Compound 102, 4-(2,4-Dimethyl-1,3-oxazol-5-yl)-N-(2-ethylphenyl)-1,3-thiazol-2-amine], the AUC result under setting [1] is “+ (+: >5000)”. Also, the half-maximal effective concentration (EC50) is under 10 µM (EC50, combined with naloxone) and 3 to 10 µM under setting [2].

For `Cc1ccc(Nc2nc(-c3oc(C)nc3C)cs2)c(C)c1` [Compound 105, 4-(2,4-Dimethyl-1,3-oxazol-5-yl)-N-(2,4-dimethylphenyl)-1,3-thiazol-2-amine], the AUC entry under setting [1] is given as “+ (+: >5000)”. Moreover, under setting [3], the EC50 was over 10 µM.

On to `Cc1cc(C)c(Nc2nc(-c3oc(C)nc3C)cs2)c(C)c1` [Compound 106, 4-(2,4-Dimethyl-1,3-oxazol-5-yl)-N-(2,4,6-trimethylphenyl)-1,3-thiazol-2-amine], for which the AUC entry under setting [1] was “+ (+: >5000)”. Also, the half-maximal effective concentration (EC50) is under 10 µM (EC50, combined with naloxone) and 3 to 10 µM under setting [2].

Turning to `CCc1ccccc1Nc1ncc(-c2sc(C)nc2C)o1` [Compound 107, 5-(2,4-Dimethyl-1,3-thiazol-5-yl)-N-(2-ethylphenyl)-1,3-oxazol-2-amine], the AUC entry under setting [1] is “+ (+: >5000)”. In addition, under setting [3], the concentration for a half-maximal effect (EC50) is over 10 µM.

With `CCc1ccccc1Nc1ncc(-c2oc(C)nc2C)o1` [Compound 109, 5-(2,4-Dimethyl-1,3-oxazol-5-yl)-N-(2-ethylphenyl)-1,3-oxazol-2-amine], under setting [1], the AUC result is “− (−: <5000)”. The EC50 under setting [3] was over 10 µM.

In the case of `COC(=O)Cc1cnc(Nc2nc(-c3sc(C)nc3C)cs2)s1` [Compound 111, Methyl {2-[(2′,4′-dimethyl-4,5′-bi-1,3-thiazol-2-yl)amino]-1,3-thiazol-5-yl}acetate], the AUC result under setting [1] is recorded as “− (−: <5000)”. For the same compound, the half-maximal effective concentration (EC50) under setting [3] was over 10 µM.
